The text below walks through data of US8785488B2 (Exelixis Patent Company LLC, priority 2009, dated 2014).

In the test the target is T1, human TGR5 (h-TGR5) (Homo sapiens, UniProt Q8TDU6).
T1 construct: expressed in transfected cells
T1 sequence (Q8TDU6 1-330): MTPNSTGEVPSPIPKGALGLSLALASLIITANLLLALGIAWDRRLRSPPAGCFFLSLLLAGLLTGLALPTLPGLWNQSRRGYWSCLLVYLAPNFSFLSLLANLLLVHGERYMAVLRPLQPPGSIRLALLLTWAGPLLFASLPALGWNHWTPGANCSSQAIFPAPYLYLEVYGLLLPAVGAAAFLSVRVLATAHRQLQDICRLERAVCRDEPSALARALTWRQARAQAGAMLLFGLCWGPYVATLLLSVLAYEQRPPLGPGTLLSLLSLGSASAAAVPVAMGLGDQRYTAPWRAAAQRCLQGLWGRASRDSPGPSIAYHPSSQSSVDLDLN
Nature of the test: TGR5/CRE-Luciferiase Assay (HEK 293 hTGR5/CRE-Luc cells). In kind it is cell-based. How it is done:
Compounds were serially diluted in DMEM containing 5% DMSO and 5 μL of compound or media alone was transferred to each well and plates were incubated for 6 hours. Following incubation, 30 μL of lysis/luciferase buffer was added to each well. The luciferase activity was then measured on the EnVision™ plate reader and the dose response data was analyzed using ActivityBase.
In the following tables, EC50 values determined according to the TGR5 cAMP Assay described herein (cAMP); EC50 values determined according to the TGR5/CRE-Luciferiase Assay described herein (CRE-Luc). […] The following compounds in Tables 1 and 2 were made by using procedures described in the above Schemes and Examples, and, where applicable, by making any necessary substitutions of known materials that one skilled in the art would ordinarily understand how to do.

Setting [1] is: h-TGR5 CRE-Luc EC50, Table 1, read-out: CRE-Luc (EC50).

Where two headings read alike, the source gives them in different places. Some results are limits rather than exact numbers.

As to `CC(C)(c1ccc(F)c(F)c1)c1cnc(SCc2c(F)cc(C(=O)O)cc2Cl)n1-c1ccc(F)cc1` [3-chloro-4-[({5-[1-(3,4-difluorophenyl)-1-methylethyl]-1-(4-fluorophenyl)-1H-imidazol-2-yl}thio)methyl]-5-fluorobenzoic acid], the 50% effective concentration (EC50) under setting [1] was 100 to 1000 nM.
In the case of `CC(C)(c1ccc(Cl)c(Cl)c1)c1cnc(SCc2ccc(F)cc2Cl)n1-c1ccc(F)c(C(F)(F)F)c1` [2-{[(2-chloro-4-fluorophenyl)methyl]thio}-5-[1-(3,4-dichlorophenyl)-1-methylethyl]-1-[4-fluoro-3-(trifluoromethyl)phenyl]-1H-imidazole], under setting [1], the EC50 lay in the range of 1000 to 10000 nM.
As to `CC(C)(c1ccc(Cl)c(Cl)c1)c1cnc(SCc2ccc(F)c(CO)c2)n1-c1ccc(F)cc1` [{5-[({5-[1-(3,4-dichlorophenyl)-1-methylethyl]-1-(4-fluorophenyl)-1H-imidazol-2-yl}thio)methyl]-2-fluorophenyl}methanol], the concentration giving a half-maximal response (EC50) under setting [1] lay in the range of 100 to 1000 nM.
Turning to `CC(C)(c1ccc(Cl)c(Cl)c1)c1cnc(S(=O)(=O)Cc2ccc(F)c(Cl)c2)n1-c1ccc(F)cc1` [2-{[(3-chloro-4-fluorophenyl)methyl]sulfonyl}-5-[1-(3,4-dichlorophenyl)-1-methylethyl]-1-(4-fluorophenyl)-1H-imidazole], the EC50 under setting [1] lay within 100 to 1000 nM.
The same measure, in the same setting: then `COc1ccc(C(C)(C)c2cnc(C(=O)NC3CCCCC3)n2-c2ccc(F)cc2)cc1OC` [5-{1-[3,4-bis(methyloxy)phenyl]-1-methylethyl}-N-cyclohexyl-1-(4-fluorophenyl)-1H-imidazole-2-carboxamide], with 1000 to 10000 nM.
In the case of `CC(C)(C(=O)O)c1ccc(F)c(CSc2ncc(C(C)(C)c3ccc(Cl)c(Cl)c3)n2-c2ccc(F)cc2)c1` [2-{3-[({5-[1-(3,4-dichlorophenyl)-1-methylethyl]-1-(4-fluorophenyl)-1H-imidazol-2-yl}thio)methyl]-4-fluorophenyl}-2-methylpropanoic acid], under setting [1], the EC50 is 1000 to 10000 nM.
With `CC(C)(c1ccc(O)c(O)c1)c1cnc(SCc2ccc(F)cc2Cl)n1-c1ccc(F)cc1` [4-{1-[2-{[(2-chloro-4-fluorophenyl)methyl]thio}-1-(4-fluorophenyl)-1H-imidazol-5-yl]-1-methylethyl}benzene-1,2-diol], the EC50 under setting [1] is under 100 nM.
`Fc1ccc(-n2c(Cc3ccc(Cl)c(Cl)c3)nnc2SCc2cccc(Cl)c2F)cc1` [Example 2]: for the setting “HEK 293 hTGR5/CRE-Luc cells, 6 hours incubation, luciferase activity, Table 2, read-out: h-TGR5CRE-Luc EC50 (CRE-Luc)”, the EC50 lay in the range of 1000 to 10000 nM.
Turning to `CC(C)(c1ccc(Cl)c(Cl)c1)c1cnc(SCc2ccc(F)cc2Cl)n1-c1ccc(F)c(C#N)c1` [5-(2-{[(2-chloro-4-fluorophenyl)methyl]thio}-5-[1-(3,4-dichlorophenyl)-1-methylethyl]-1H-imidazol-1-yl)-2-fluorobenzonitrile], under setting [1], the concentration for a half-maximal effect (EC50) was in the range of 100 to 1000 nM.
The same measure, in the same setting: with `CC(C)(c1ccc(Cl)c(Cl)c1)c1cnc(SCc2c(F)cccc2Cl)n1-c1ccc(F)cc1Cl` [1-(2-chloro-4-fluorophenyl)-2-{[(2-chloro-6-fluorophenyl)methyl]thio}-5-[1-(3,4-dichlorophenyl)-1-methylethyl]-1H-imidazole] the figure was 100 to 1000 nM; with `CC(C)(c1ccc(Cl)c(Cl)c1)c1cnc(S(=O)(=O)Cc2c(Cl)cccc2Cl)n1-c1ccc(F)cc1` [5-[1-(3,4-dichlorophenyl)-1-methylethyl]-2-{[(2,6-dichlorophenyl)methyl]sulfonyl}-1-(4-fluorophenyl)-1H-imidazole], 100 to 1000 nM.
As for `CC(C)(c1ccc(F)c(F)c1)c1cnc(SCC2CCN(CC(O)CO)CC2)n1-c1ccc(F)cc1` (centres unmarked) [3-{4-[({5-[1-(3,4-difluorophenyl)-1-methylethyl]-1-(4-fluorophenyl)-1H-imidazol-2-yl}thio)methyl]piperidin-1-yl}propane-1,2-diol], under setting [1], the EC50 fell in the range of 1000 to 10000 nM.
As for `COc1ccc(C(C)(C)c2cnc(S(=O)(=O)CCc3ccc(Cl)c(Cl)c3)n2-c2ccc(F)cc2)cc1OC` [5-{1-[3,4-bis(methyloxy)phenyl]-1-methylethyl}-2-{[2-(3,4-dichlorophenyl)ethyl]sulfonyl}-1-(4-fluorophenyl)-1H-imidazole], the 50% effective concentration (EC50) under setting [1] was under 100 nM.
For `CC(C)(c1ccc(Cl)c(OCCCO)c1)c1cnc(SCc2c(F)cccc2Cl)n1-c1ccc(F)cc1` [3-[(2-chloro-5-{1-[2-{[(2-chloro-6-fluorophenyl)methyl]thio}-1-(4-fluorophenyl)-1H-imidazol-5-yl]-1-methylethyl}phenyl)oxy]propan-1-ol], the EC50 under setting [1] lay within 100 to 1000 nM.
In the case of `COC(=O)c1cc(F)c(OCc2ncc(C(C)(C)c3ccc(Cl)c(Cl)c3)n2-c2ccc(F)cc2)c(Cl)c1` [methyl 3-chloro-4-[({5-[1-(3,4-dichlorophenyl)-1-methylethyl]-1-(4-fluorophenyl)-1H-imidazol-2-yl}methyl)oxy]-5-fluorobenzoate], the concentration for a half-maximal effect (EC50) under setting [1] fell in the range of 100 to 1000 nM.
For `CC(C)(c1ccc(Cl)c(O)c1)c1cnc(SCc2c(F)cccc2Cl)n1-c1ccc(F)cc1` [2-chloro-5-{1-[2-{[(2-chloro-6-fluorophenyl)methyl]thio}-1-(4-fluorophenyl)-1H-imidazol-5-yl]-1-methylethyl}phenol], under setting [1], the half-maximal effective concentration (EC50) was under 100 nM.
Regarding `CC(C)(c1ccc(Cl)c(Cl)c1)c1cnc(SCc2ccc(F)cc2S(C)(=O)=O)n1-c1ccc(F)cc1` [5-[1-(3,4-dichlorophenyl)-1-methylethyl]-2-({[4-fluoro-2-(methylsulfonyl)phenyl]methyl}thio)-1-(4-fluorophenyl)-1H-imidazole], under setting [1], the 50% effective concentration (EC50) was in the range of 100 to 1000 nM.
On the same count and under the same terms, then `CC(C)(c1ccc(Cl)c(Cl)c1)c1cnc(S(=O)(=O)Cc2ccc(F)c(F)c2)n1-c1ccc(F)cc1` [5-[1-(3,4-dichlorophenyl)-1-methylethyl]-2-{[(3,4-difluorophenyl)methyl]sulfonyl}-1-(4-fluorophenyl)-1H-imidazole], with 100 to 1000 nM; and `CC(C)(c1ccc(Cl)c(Cl)c1)c1cnc(SCc2ccc(F)c(NC(=N)N)c2)n1-c1ccc(F)cc1` [1-{5-[({5-[1-(3,4-dichlorophenyl)-1-methylethyl]-1-(4-fluorophenyl)-1H-imidazol-2-yl}thio)methyl]-2-fluorophenyl}guanidine], with 100 to 1000 nM; and `CC(C)(c1ccc(Cl)c(S(N)(=O)=O)c1)c1cnc(SCc2ccc(Cl)c(-c3nnn[nH]3)c2)n1-c1ccc(F)cc1` [2-chloro-5-{1-[2-({[4-chloro-3-(1H-tetrazol-5-yl)phenyl]methyl}thio)-1-(4-fluorophenyl)-1H-imidazol-5-yl]-1-methylethyl}benzenesulfonamide], with 100 to 1000 nM.
With `CC(C)(c1ccc(Cl)c(Cl)c1)c1cnc(SCc2ccc(-c3nnn[nH]3)c(F)c2)n1-c1ccc(F)cc1` [5-{4-[({5-[1-(3,4-dichlorophenyl)-1-methylethyl]-1-(4-fluorophenyl)-1H-imidazol-2-yl}thio)methyl]-2-fluorophenyl}-1H-tetrazole], under setting [1], the 50% effective concentration (EC50) is 100 to 1000 nM.
Take `CC(C)(c1ccc(Cl)c(Cl)c1)c1c(-c2ccccc2)nc(SCc2c(F)cccc2Cl)n1-c1ccc(F)cc1` [2-{[(2-chloro-6-fluorophenyl)methyl]thio}-5-[1-(3,4-dichlorophenyl)-1-methylethyl]-1-(4-fluorophenyl)-4-phenyl-1H-imidazole]: the concentration for a half-maximal effect (EC50) under setting [1] fell in the range of 1000 to 10000 nM.
`CC(C)(c1ccc(F)c(F)c1)c1cnc(SCc2c(F)cccc2Cl)n1-c1ccc(F)cc1` [2-{[(2-chloro-6-fluorophenyl)methyl]thio}-5-[1-(3,4-difluorophenyl)-1-methylethyl]-1-(4-fluorophenyl)-1H-imidazole]: under setting [1], the EC50 is under 100 nM.

By EC50 is commonly meant the concentration giving half of the maximal effect.
